The text below walks through data of patent publication US20240398737A1, “FUNCTIONALIZED LONG-CHAIN HYDROCARBON MONO- AND DI-CARBOXYLIC ACIDS AND DERIVATIVES THEREOF, AND THEIR USE FOR THE PREVENTION OR TREATMENT OF DISEASE” (Espervita Therapeutics, Inc., priority 2021, published 2024).

Each structure is given as a SMILES string.

For series [1], the system named is human hematopoietic stem and progenitor cells. Briefly: Megakaryopoiesis and platelet production in cultured human hematopoietic stem and progenitor cells. It counts as cell-based. The note with it: added day 0, 8 days culture, I-32 and I-1 30 μM, ABT-737 6 μmol. The procedure: Materials and Methods. Hematopoietic stem and progenitor cells, identified as viable CD45+ CD34+ cells, were isolated from peripheral blood of healthy donors by a method known in the art (see Ivetic N, Nazi I, Karim N et al. Producing megakaryocytes from a human peripheral blood source. Transfusion 2016; 56:1066-74). These isolated cells were then analyzed for purity before being expanded for four days using a commercial supplement to increase their cell population. After expansion, the cells were analyzed for purity, washed, and stimulated with a saturating concentration of thrombopoietin (20 ng/mL) and stem cell factor (50 ng/mL) to begin megakaryopoiesis. Compound I-32 and Compound I-1 were added at this timepoint at a concentration of 30 μM. The cells were then cultured for 8 days to develop into megakaryocytes and analyzed via flow cytometry to assess their number, maturity, and platelet count as defined by CD41a, CD42b and Calcein-AM expression. In addition, Compound I-32 and Compound I-1 were added to cells during the later stages of development (day 6) to assess their impact on maturation. ABT-737 (6 μmol) was used as a positive control and a DMSO vehicle control (<0.15% v/v) was the negative control. All counts are normalized to a media control (PBS) as a reference for basic cell growth.
Statistical analysis. Statistical analyses were carried out by comparing effects on measured parameters in comparison to vehicle control. A value of […] (One-way ANOVA multiple comparisons) was considered as significant.
Two isolations were performed from two healthy donors (2 males) and used to assess the impacts of Compound I-32 and Compound I-1. For one of the isolations, enough expanded hematopoietic stem and progenitor cells (HSPC) (Experiment 1) were obtained so that the addition of the compounds on day 6 was also performed along with the initial experiment. For the other experiment (Experiment 2) only an 8-day incubation was performed.
All results were normalized to a reference media (PBS) and Compound I-32 and Compound I-1 were compared to a vehicle control. Reference compound ABT-737 is a known BCL-2 inhibitor and was used a positive control. Results in FIGS. 25A-25J are the summary of a single experiments conducted in triplicates. No statistical inhibition was detected for Compound I-32 or Compound I-1 (p>0.05 one-way ANOVA).

Series [2] deals with Mouse primary hepatocytes. The experiment in a line: 14C-acetate incorporation into total lipids in mouse primary hepatocytes. The note with it: incorporation of 14C-acetate in primary mouse hepatocyte total lipids, 4 hours; for inhibition at 100 µM: read-out: % change from control at 100 μM ± SEM(n). It counts as cell-based. The procedure:
After perfusion, collagen digested liver cells were re-suspended in William's E media (11 mM glucose) (Gibco) supplemented with 10% fetal bovine serum (FBS) (Gibco), 2 mM L-glutamine (Gibco) and 1% Antibiotic-Antimycotic (Gibco) mixture and seeded in white opaque 96-well plates. On the following day, the cells were serum-starved for 2 hours, then treated with 0 μM, 0.1 μM, 0.3 μM, 0.5 μM, 1 μM, 3 μM, 10 μM, and 100 μM of Compound I-32, Compound I-1, Compound III-1 or Reference Compound (e.g., any of Compounds A-E or bempedoic acid) in the presence of ^14C-Acetate (1 μCi/ml, PerkinElmer). Each of Compound I-32, Compound I-1, Compound III-1, and Reference Compound was solubilized in 100% DMSO to a final concentration of 100 mM stock solution. In the experimental condition, the stock solution was diluted in serum free media (William's E media (11 mM glucose) (Gibco), 2 mM L-glutamine (Gibco) and 1% Antibiotic-Antimycotic) to yield the desired concentration of each compound. […] After 4 hours of treatment, the plates were washed two times with PBS (×1) and 100 μL microscint fluid (Microscint 0, part #601361) was added in each well. Plates were wrapped with aluminum foil and were shaken at 250 rpm for 2 h. After 2 h of shaking, ^14C incorporation into lipid was determined by liquid scintillation counting using a TopCount NXT Microplate Scintillation and Luminescence Counter (Perkin Elmer).
The effects of Compound I-32, Compound I-1, and Compound III-1 on mouse primary hepatocyte lipogenesis are represented in Table 13. Each Compound was assayed at a concentration of 0 μM (vehicle control), 0.1 μM, 0.3 μM, 0.5 μM, 1 μM, 3 μM, 10 μM, and 100 μM, unless otherwise noted. Statistically significant inhibition was determined by one-way ANOVA and Dennett's post hoc test where appropriate. […] IC50 values were determined by nonlinear regression. All statistical analyses were carried out using GraphPad Prism 8 software. A p-value of less than or equal 0.05 was considered significant.

A further series concerns the target human ACLY (Homo sapiens (Human), UniProt P53396). The experiment in a line: ATP-citrate lyase (ACLY) enzymatic assay (ADP-Glo). It counts as biochemical. The note with it: recombinant human ACLY; 10 concentrations from 300 μM; Runs 1-3; read-out: Compound IC50 (M) ACLY. The procedure: ATP citrate lyase was obtained from Sino Biological Inc. Cat #11769-H07B, Lot #LC08DE1701. It was prepared from a DNA sequence encoding the human ACLY (P53396) (Met 1-Met 1101) expressed in Baculovirus-Insect Cells, with a polyhistidine tag at the N-terminus. The recombinant human ACLY consists of 1120 amino acids and has a calculated molecular mass of 123 kDa. It migrates as an approximately 110 kDa band in SDS-PAGE under reducing conditions. The enzyme came as a lyophilized powder in sterile 20 mM Tris, 500 mM NaCl, pH 8.0, 10% glycine. Normally 5%-8% trehalose and mannitol are added as protectants before lyophilization. The recombinant human ACLY from Sino Biological was formulated in 45 mM Tris-HCl, pH 8.0, 124 mM NaCl, 2.4 mM KCl, 18 mM glutathione, 10% glycerol, and 3 mM DTT.
To detect ADP produced from ACL assay, the ADP-Glo™ assay format from Promega, Madison, WI, was used, to detect the conversion of ATP to ADP. […] This assay is performed in two steps: i) after the ACL-mediated enzymatic reaction that utilizes ATP and produces ADP, ADP-Glo™ Reagent is added to terminate the kinase reaction and deplete the remaining ATP, and ii) the Kinase Detection Reagent is added to convert ADP to ATP and allow the newly synthesized ATP to be measured using a luciferase/luciferin reaction. The light generated, measured in a luminometer, correlates to the amount of ADP generated in the ACL assay, which is indicative of ACL activity.
Data represent nM or μM ADP produced, % Activity (relative to no inhibitor controls), and curve fits were performed by GraphPad Prism software. The IC50 concentration-response curves were generated for ADPGlo™ using recombinant human ACL from Sino Biologicals Inc.

A short description of series [3]: Synthesis of CoA derivatives in rat liver microsomes (LCMS detection). It counts as in vitro ADME. The note with it: 1 mM substrate, 30 min sample. How it is done:
Reaction products were eluted using the gradient shown below: […]
Formation and detection of the Co-A derivatives of Compounds 1-32, 1-61, I-1 or III-1 in rat liver microsomes: 1 mM of each compound (Compounds I-32, I-61, I-1 or III-1) or palmitic acid (control) were used as substrate in the rat microsomal preparation for 0 and 30 min and extracted as described above. […] Further confirmation was obtained by exposing the compound to a collision energy causing the characteristic neutral loss of 3′-phosphonucleoside diphosphate (507 Da) producing the fragment ion 499.3 m/z. There was no evidence of the CoA derivative in the time 0 min sample.
(In general: Liver microsomes are vesicles of endoplasmic reticulum, rich in cytochrome P450 enzymes.)

human ACLY, sequence (P53396 whole entry): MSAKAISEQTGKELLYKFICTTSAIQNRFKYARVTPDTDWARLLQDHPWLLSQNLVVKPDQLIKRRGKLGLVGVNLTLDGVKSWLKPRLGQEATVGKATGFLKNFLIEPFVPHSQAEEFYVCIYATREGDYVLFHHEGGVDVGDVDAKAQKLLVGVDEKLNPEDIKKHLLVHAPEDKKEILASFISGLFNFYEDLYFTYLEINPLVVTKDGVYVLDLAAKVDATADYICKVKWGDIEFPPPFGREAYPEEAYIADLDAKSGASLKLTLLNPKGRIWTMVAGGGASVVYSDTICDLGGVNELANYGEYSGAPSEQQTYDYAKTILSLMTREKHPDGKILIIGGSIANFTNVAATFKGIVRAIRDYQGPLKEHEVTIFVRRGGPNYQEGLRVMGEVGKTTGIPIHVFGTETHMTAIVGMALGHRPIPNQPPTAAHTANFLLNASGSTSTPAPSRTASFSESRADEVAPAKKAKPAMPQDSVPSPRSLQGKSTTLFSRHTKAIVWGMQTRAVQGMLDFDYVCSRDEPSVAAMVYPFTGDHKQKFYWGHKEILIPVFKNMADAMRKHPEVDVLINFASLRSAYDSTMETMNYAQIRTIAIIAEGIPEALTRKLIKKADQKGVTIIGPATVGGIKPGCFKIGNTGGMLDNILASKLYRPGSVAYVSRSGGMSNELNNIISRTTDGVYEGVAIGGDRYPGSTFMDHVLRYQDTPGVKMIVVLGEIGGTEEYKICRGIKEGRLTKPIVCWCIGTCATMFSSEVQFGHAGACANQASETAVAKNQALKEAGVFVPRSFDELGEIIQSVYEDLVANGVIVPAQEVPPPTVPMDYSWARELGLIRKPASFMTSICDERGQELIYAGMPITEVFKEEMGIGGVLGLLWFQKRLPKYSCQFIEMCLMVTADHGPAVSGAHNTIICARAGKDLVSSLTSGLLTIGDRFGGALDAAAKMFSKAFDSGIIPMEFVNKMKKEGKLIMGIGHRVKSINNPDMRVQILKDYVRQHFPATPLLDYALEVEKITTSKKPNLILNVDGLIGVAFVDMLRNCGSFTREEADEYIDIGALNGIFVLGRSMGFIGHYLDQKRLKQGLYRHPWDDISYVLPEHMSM

Consider `CN(C)CC[C@H](CSc1ccccc1)Nc1ccc(S(=O)(=O)NC(=O)c2ccc(N3CCN(Cc4ccccc4-c4ccc(Cl)cc4)CC3)cc2)cc1[N+](=O)[O-]` [ABT-737, reference compound], for which, in series [1], the “CD41a+ mean fluorescence intensity (MFI), normalized” value was determined as 46±34% and the “Normalized cell size (CD41a+)” value was determined as 81±6%. In series [1] (average±SD), the “CD41a CD42b+ counts (mature megakaryocytes), normalized to reference media control” value was 2±1%; the “CD41a+ cells (megakaryocytes), normalized to reference media control” value turned out to be 9±5%; the “Platelet counts, normalized to reference media control” value turned out to be 3±3%.

With `CC(C)(CCCCCC(=O)CCCCCC(C)(C)C(=O)O)C(=O)O` [C], the inhibition at 100 µM in series [2] is 76 ± 41%.

By IC50 is commonly meant the concentration that inhibits the measured activity by half. Consider `CC(C)(CO)CCCCC(=O)CCCCC(C)(C)C(=O)O` [B], for which, in series [2], the IC50 is 25.6 µM and the inhibition at 100 µM came to 69 ± 2.3%.

Regarding `CC(C)(CCCCCCC(=O)CCCCCCC(C)(C)C(=O)O)C(=O)O` [E], in series [2], the “% change from control at 100 μM ± SEM(n)” value is recorded as −62 ± 4.5 (n = 4) %.

In the case of `COc1ccc(-c2ccccc2)cc1NS(=O)(=O)c1cc(Cl)cc(Cl)c1O` [BMS-303141, reference compound], at human ACLY, the IC50 turned out to be 4.45e-07 M.

Turning to `CC(C)(CCCc1ccccc1CCCC(C)(C)C(=O)SCCNC(=O)CCNC(=O)[C@H](O)C(C)(C)COP(=O)(O)OP(=O)(O)OC[C@H]1O[C@@H](n2cnc3c(N)ncnc32)[C@H](O)[C@@H]1OP(=O)(O)O)C(=O)O` [I-61—CoA], the “Formation of the CoA derivative (LCMS detection, fragmentation confirmation)” value in series [3] is “could not be confirmed”.

Take `CC(C)(CO)CCCCCC(=O)CCCCCC(C)(C)CO` [D]: the “% change from control at 100 μM ± SEM(n)” value in series [2] was −90 ± 1.5 (n = 4) %.

`CC(C)(CCCCCCCCCCCC(C)(C)C(=O)O)C(=O)O` [F]: the “% change from control at 100 μM ± SEM(n)” value in series [2] was −91 ± 3.6 (n = 4) %.

For `CC(C)(CO)CCCCC(=O)CCCCC(C)(C)CO` [A], the “% change from control at 100 μM ± SEM(n)” value in series [2] is reported as −41 ± 4.8 (n = 2) %.

Consider `CC(C)(CCCCCC(O)CCCCCC(C)(C)C(=O)O)C(=O)O` [BA, Bempedoic acid], for which the “% change from control at 100 μM ± SEM(n)” value in series [2] is given as −79 ± 1.5 (n = 4) %.

Take `CC(C)(CCCc1ccc(CCCC(C)(C)C(=O)O)cc1)C(=O)O` [III-1]: in series [2], the “% change from control at 100 μM ± SEM(n)” value is recorded as −70 ± 2.2 (n = 4) %.
